Where a name gives a salt, the structure may show the parent alone.
molecular target: T1, hGPR40 (Homo sapiens, UniProt O14842); experiment: FDSS-based intracellular calcium assay (Human GRP40 In Vitro assay); format: cell-based; settings: cells expressing GPR40, intracellular Ca2+ response
T1 construct: 3xFLAG; expressed in transfected cells
Method: FDSS-Based Intracellular Calcium Assay
Cell lines expressing GPR40 are generated using the pDEST-3xFLAG gene expression system and are cultured in culture medium comprising the following components: F12 (Gibco #11765), 10% lipid deprived fetal bovine serum, 250 μg/ml zeocin and 500 μg/ml G418. To conduct the fluorescent imaging plate reader (FLIPR)-based calcium flux assay to measure intracellular Ca^2+ response, cells expressing GPR40 are plated on 384 well plates (BD Biocoat #356697) at a density of 20,000 cells/20 μL medium per well in phenol red and serum-free DMEM (Gibco #21063-029) and incubated overnight. Using BD kit #s 80500-310 or -301, the cells are incubated with 20 μL per well of Hank's buffered salt solution with 1.7 mM probenecid and Fluo-3 at 37° C. for 30 min. Compounds are dissolved in DMSO and diluted to desired concentrations with assay buffer and added to the cells as 3× solution (20 μL per well). Run fluorescence/luminescence reader FDSS (Hamamatsu) to read intracellular Ca^2+ response.
The exemplified Examples disclosed below were tested in the Human GRP40 In Vitro assay described above and found having hGRP40 modulating activity.

T1 sequence (O14842 whole entry): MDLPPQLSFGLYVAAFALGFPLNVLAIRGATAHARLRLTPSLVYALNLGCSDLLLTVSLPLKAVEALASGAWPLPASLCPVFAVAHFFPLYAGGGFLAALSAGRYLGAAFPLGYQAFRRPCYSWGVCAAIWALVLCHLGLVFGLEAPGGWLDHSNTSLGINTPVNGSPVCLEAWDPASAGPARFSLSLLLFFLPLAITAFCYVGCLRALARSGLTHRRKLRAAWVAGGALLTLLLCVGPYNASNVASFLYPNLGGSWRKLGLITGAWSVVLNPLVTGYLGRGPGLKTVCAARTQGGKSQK

EC50 [nM] | Structure (SMILES)
150 | COc1ccc(F)c(-c2ccc(Cc3ccc(N4CC(c5cc(C)no5)CC4CC(=O)O)cc3)c(C)c2)c1 (single isomer, unassigned) [Example 9, Isomer 1, 2-(1-(4-((2′-Fluoro-5′-methoxy-3-methyl-[1,1′-biphenyl]-4-yl)methyl)phenyl)-4-(3-methylisoxazol-5-yl)pyrrolidin-2-yl)acetic Acid, HCl]
2200 | COc1ccc(F)c(-c2ccc(Cc3ccc(N4CC(c5cc(C)no5)CC4CC(=O)O)cc3)c(C)c2)c1 (single isomer, unassigned) [Example 9, Isomer 2, 2-(1-(4-((2′-Fluoro-5′-methoxy-3-methyl-[1,1′-biphenyl]-4-yl)methyl)phenyl)-4-(3-methylisoxazol-5-yl)pyrrolidin-2-yl)acetic Acid, HCl]
1400 | COc1ccc(F)c(-c2ccc(Cc3ccc(N4CC(c5cc(C)no5)CC4CC(=O)O)cc3)c(C)c2)c1 (single isomer, unassigned) [Example 9, Isomer 3, 2-(1-(4-((2′-Fluoro-5′-methoxy-3-methyl-[1,1′-biphenyl]-4-yl)methyl)phenyl)-4-(3-methylisoxazol-5-yl)pyrrolidin-2-yl)acetic Acid, HCl]
3500 | COc1ccc(F)c(-c2ccc(Cc3ccc(N4CC(c5cc(C)no5)CC4CC(=O)O)cc3)c(C)c2)c1 (single isomer, unassigned) [Example 9, Isomer 4, 2-(1-(4-((2′-Fluoro-5′-methoxy-3-methyl-[1,1′-biphenyl]-4-yl)methyl)phenyl)-4-(3-methylisoxazol-5-yl)pyrrolidin-2-yl)acetic Acid, HCl]
8100 | COc1ccc(F)c(-c2ccc(Cc3ccc(N4CC(c5ccon5)CC4CC(=O)O)cc3)c(C)c2)c1 (single isomer, unassigned) [Example 11, Isomer 1, 2-(1-(4-((2′-Fluoro-5′-methoxy-3-methyl-[1,1′-biphenyl]-4-yl)methyl)phenyl)-4-(isoxazol-3-yl)pyrrolidin-2-yl)acetic Acid, HCl]
550 | COc1ccc(F)c(-c2ccc(Cc3ccc(N4CC(c5ccon5)CC4CC(=O)O)cc3)c(C)c2)c1 (single isomer, unassigned) [Example 11, Isomer 2, 2-(1-(4-((2′-Fluoro-5′-methoxy-3-methyl-[1,1′-biphenyl]-4-yl)methyl)phenyl)-4-(isoxazol-3-yl)pyrrolidin-2-yl)acetic Acid, HCl]
160 | COc1ccc(F)c(-c2ccc(Cc3ccc(N4CC(c5cccc(Cl)c5)C[C@@H]4CC(=O)O)cc3)c(C)c2)c1 (single isomer, unassigned) [Example 12, Isomer 1, HCl]
10 | COc1ccc(F)c(-c2ccc(Cc3ccc(N4CC(c5cccc(Cl)c5)C[C@@H]4CC(=O)O)cc3)c(C)c2)c1 (single isomer, unassigned) [Example 12, Isomer 2, HCl]
6700 | COc1ccc(F)c(-c2ccc(Cc3ccc(N4C[C@@H](N5CCCCC5)C[C@@H]4CC(=O)O)cc3)c(C)c2)c1 (single isomer, unassigned) [Example 13, Isomer 1]
2800 | COc1ccc(F)c(-c2ccc(Cc3ccc(N4C[C@H](N5CCCCC5)C[C@@H]4CC(=O)O)cc3)c(C)c2)c1 (single isomer, unassigned) [Example 13, Isomer 2]
39 | COc1ccc(F)c(-c2ccc(Cc3ccc(N4C[C@H](c5ccccc5OC)C[C@@H]4CC(=O)O)cc3)c(C)c2)c1 (single isomer, unassigned) [Example 15, Isomer 1, HCl]
61 | COc1ccc(F)c(-c2ccc(Cc3ccc(N4C[C@@H](c5ccccc5OC)C[C@@H]4CC(=O)O)cc3)c(C)c2)c1 (single isomer, unassigned) [Example 15, Isomer 2, HCl]
15 | COc1ccc(F)c(-c2ccc(Cc3ccc(N4C[C@H](c5ccccc5)C[C@@H]4CC(=O)O)cc3)c(C)c2)c1 [Example 1, 2-((2R,4S)-1-(4-((2′-Fluoro-5′-methoxy-3-methylbiphenyl-4-yl)methyl)phenyl)-4-phenylpyrrolidin-2-yl)acetic Acid, HCl]
270 | COc1ccc(F)c(-c2ccc(Cc3ccc(N4CC(C#N)CC4CC(=O)O)cc3)c(C)c2)c1 (centres unmarked) [Example 2, 2-(4-Cyano-1-(4-((2′-fluoro-5′-methoxy-3-methylbiphenyl-4-yl)methyl)phenyl)pyrrolidin-2-yl)acetic Acid, TFA]
13 | COc1ccc(F)c(-c2ccc(Cc3ccc(N4C[C@H](C5CCCCC5)C[C@@H]4CC(=O)O)cc3)c(C)c2)c1 [Example 3, 2-((2R,4S)-4-Cyclohexyl-1-(4-((2′-fluoro-5′-methoxy-3-methyl-[1,1′-biphenyl]-4-yl)methyl)phenyl)pyrrolidin-2-yl)acetic Acid, HCl]
210 | COc1ccc(F)c(-c2ccc(Cc3ccc(N4C[C@H](c5ccc(-c6ccccc6)cc5)C[C@@H]4CC(=O)O)cc3)c(C)c2)c1 [Example 4, 2-((2R,4S)-4-([1,1′-Biphenyl]-4-yl)-1-(4-((2′-fluoro-5′-methoxy-3-methyl-[1,1′-biphenyl]-4-yl)methyl)phenyl)pyrrolidin-2-yl)acetic Acid, HCl]
130 | COc1ccc(F)c(-c2ccc(Cc3ccc(N4C[C@@H](c5ccccc5)C[C@@H]4CC(=O)O)cc3)c(C)c2)c1 [Example 5, 2-((2R,4R)-1-(4-((2′-Fluoro-5′-methoxy-3-methyl-[1,1′-biphenyl]-4-yl)methyl)phenyl)-4-phenylpyrrolidin-2-yl)acetic Acid]
77 | COc1ccc(F)c(-c2ccc(Cc3ccc(N4C[C@](OC)(c5ccc(-c6ccccc6)cc5)C[C@@H]4CC(=O)O)cc3)c(C)c2)c1 [Example 6, 2-((2R,4R)-4-([1,1′-Biphenyl]-4-yl)-1-(4-((2′-fluoro-5′-methoxy-3-methyl-[1,1′-biphenyl]-4-yl)methyl)phenyl)-4-methoxypyrrolidin-2-yl)acetic Acid, HCl]
240 | COCCO[C@@H]1C[C@H](CC(=O)O)N(c2ccc(Cc3ccc(-c4cc(OC)ccc4F)cc3C)cc2)C1 [Example 7, 2-((2R,4R)-1-(4-((2′-Fluoro-5′-methoxy-3-methyl-[1,1′-biphenyl]-4-yl)methyl)phenyl)-4-(2-methoxyethoxy)pyrrolidin-2-yl)acetic Acid, HCl]
94 | COc1ccc(F)c(-c2ccc(Cc3ccc(N4C[C@H](c5cccnc5)C[C@@H]4CC(=O)O)cc3)c(C)c2)c1 [Example 8, 2-((2R,4S)-1-(4-((2′-Fluoro-5′-methoxy-3-methyl-[1,1′-biphenyl]-4-yl)methyl)phenyl)-4-(pyridin-3-yl)pyrrolidin-2-yl)acetic Acid, HCl]
1400 | COc1ccc(F)c(-c2ccc(Cc3ccc(N4C[C@@H](c5ccccn5)C[C@@H]4CC(=O)O)cc3)c(C)c2)c1 [Example 10, 2-((2R,4S)-1-(4-((2′-Fluoro-5′-methoxy-3-methyl-[1,1′-biphenyl]-4-yl)methyl)phenyl)-4-(pyridin-2-yl)pyrrolidin-2-yl)acetic Acid, HCl]
1000 | COc1ccc(F)c(-c2ccc(COc3ccc(N4C[C@H](c5ccccc5)C[C@@H]4CC(=O)O)cc3)c(C)c2)c1 [Example 16, 2-((2R,4S)-1-(4-((2′-Fluoro-5′-methoxy-3-methyl-[1,1′-biphenyl]-4-yl)methoxy)phenyl)-4-phenylpyrrolidin-2-yl)acetic Acid, HCl]
39 | COCCCO[C@H]1CN(c2ccc(Cc3ccc(-c4cc(OC)ccc4F)cc3C)cc2)[C@@H](CC(=O)O)[C@@H]1C [Example 17, 2-((2S,3S,4R)-1-(4-((2′-Fluoro-5′-methoxy-3-methyl-[1,1′-biphenyl]-4-yl)methyl)phenyl)-4-(3-methoxypropoxy)-3-methylpyrrolidin-2-yl)acetic Acid, HCl]

— patent US10301260B2, “Pyrrolidine GPR40 modulators” (BRISTOL-MYERS SQUIBB COMPANY, priority 2014, dated 2019)
